Measured values reported in patent publication US8431566B2, “Cyclopamine lactam analogs and methods of use thereof” (Infinity Discovery, Inc., priority 2007, dated 2013).
pEC50: −log10 of the molar value.

Assays:
[1] = tested on: Hedgehog pathway in C3H10T1/2 cells; assay: C3H10T1/2 osteoblast differentiation assay (alkaline phosphatase readout, Shh-induced); type: cell-based; conditions: Mus musculus, C3H 10T1/2, Approximate EC50 for inhibition, sonic Hedgehog 250 ng/ml, AP activity normalized against total protein
From the text: Hedgehog pathway specific cancer cell killing effects may be ascertained using the following assay. C3H10T1/2 cells differentiate into osteoblasts when contacted with the sonic hedgehog peptide (Shh-N). Upon differentiation; these osteoblasts produce high levels of alkaline phosphatase (AP) which can be measured in an enzymatic assay (Nakamura, et al., BBRC (1997) 237:465). Compounds that block the differentiation of C3H10T1/2 into osteoblasts (a Shh dependent event) can therefore be identified by a reduction in AP production (van der Horst, et al., Bone (2003) 33:899). The assay details are described below. The results (EC50 for inhibition) of the differentiation assay are shown below in Table 1.
Mouse embryonic mesoderm fibroblasts C3H10T1/2 cells (obtained from ATCC) were cultured in Basal MEM Media (Gibco/Invitrogen) supplemented with 10% heat inactivated FBS (Hyclone), 50 units/ml penicillin and 50 ug/ml streptomycin (Gibco/Invitrogen) at 37° C. with 5% CO2 in air atmosphere.
C3H10T1/2 cells were plated in 96 wells with a density of 8×10^3 cells/well. Cells were grown to confluence (72 hrs). After sonic Hedgehog (250 ng/ml), and/or compound treatment, the cells were lysed in 110 μL, of lysis buffer (50 mM Tris pH 7.4, 0.1% Triton X 100), plates were sonicated and lysates spun through 0.2 μm PVDF plates (Corning). 40 μL of lysates was assayed for AP activity in alkaline buffer solution (Sigma) containing 1 mg/ml p-Nitrophenyl Phosphate. After incubating for 30 min at 37° C., the plates were read on an Envision plate reader at 405 nm. Total protein was quantified with a BCA protein assay kit from Pierce according to manufacturer's instructions. AP activity was normalized against total protein.

[2] = tested on: BXPC-3 cells; assay: Pancreatic cancer model: subcutaneous BXPC-3 tumors in mice, tumor volume; type: in vivo, human; conditions: BXPC-3 subcutaneous in mice; orally 30 mg/kg/day, 25 daily doses
Protocol: (§1) The activity of Compound 12 was further tested in a human pancreatic model: BXPC-3 cells were implanted subcutaneously into the flanks of the right legs of mice. On day 42 post-tumor implant, the mice were randomized into two groups to receive either Vehicle (30% HPBCD) or Compound 12. Compound 12 was administered orally at 30 mg/kg/day. After receiving 25 daily doses, Compound 12 reduced tumor volume growth by 16% when compared to the vehicle control. At the end of the study, the tumors were harvested 4 hours post the last dose to evaluate an on target response by q-RT-PCR analysis of the HH pathway genes.

[3] = tested on: human Gli-1; assay: Pancreatic cancer model: q-RT-PCR of HH pathway genes in harvested tumors, human Gli-1; type: in vivo; conditions: BXPC-3 tumors harvested 4 hours post the last dose; 30 mg/kg/day orally
Protocol: as §1

[4] = tested on: murine Gli-1 mRNA; assay: Pancreatic cancer model: q-RT-PCR of HH pathway genes in harvested tumors, murine Gli-1; type: in vivo; conditions: BXPC-3 tumors harvested 4 hours post the last dose; 30 mg/kg/day orally
Protocol: as §1

[5] = tested on: Gli-1 mRNA; assay: Medulloblastoma model (Ptch1/Hic1 subcutaneous allografts): Gli-1 mRNA expression in tumors; type: in vivo, mouse; conditions: single oral dose, subcutaneously implanted medulloblastoma tumors, 8 hours post dose
Protocol: (§2) The activity of Compound 12 was also evaluated in a transgenic mouse model of medulloblastoma. Mice that are heterozygous for loss of function mutations in the tumor suppressors Patched1 (Ptch1) and Hypermethylated in Cancer (Hic1) develop spontaneous medulloblastoma. […] When passaged as subcutaneous allografts, these tumors grow aggressively and are Hedgehog pathway-dependent. This model was employed to evaluate the efficacy of orally administered Compound, and to correlate activity with drug exposure in plasma and tumors.

[6] = tested on: medulloblastoma; assay: Medulloblastoma model (Ptch1/Hic1 subcutaneous allografts): tumor growth; type: in vivo, mouse
Protocol: as §2

[7] = tested on: NCI-H929; assay: Multiple myeloma colony growth in methylcellulose, NCI-H929; type: cell-based, human; conditions: treated 96 hours, plated in methylcellulose, colonies quantified 10-21 days later
Protocol: (§3) The ability of Compound 12 to inhibit the growth of multiple myeloma cells (MM) in vitro was tested, using human multiple myeloma cells lines (NCI-H929 and KMS12) and primary clinical bone marrow specimens derived from patients with MM. The cells were treated for 96 hours with Compound, washed, then plated in methylcellulose. Tumor colonies were quantified 10-21 days later as an indicator of cell growth potential following treatment.

[8] = tested on: KMS12; assay: Multiple myeloma colony growth in methylcellulose, KMS12; type: cell-based, human; conditions: treated 96 hours, plated in methylcellulose, colonies quantified 10-21 days later
Protocol: as §3

[9] = tested on: primary clinical bone marrow specimens derived from patients with MM; assay: Multiple myeloma colony growth in methylcellulose, primary clinical bone marrow specimens; type: cell-based, human; conditions: clinical samples from MM patients; treated 96 hours, plated in methylcellulose
Protocol: as §3

[10] = tested on: U937; assay: AML colony formation in methylcellulose, U937; type: cell-based, human; conditions: 1.0 uM, 72 hours
Protocol: (§4) The ability of Compound 12 to inhibit the in vitro growth of human cell lines derived from patients with acute myeloid leukemia (AML, cell line U937) and myelodysplastic syndrome (MDS, cell line KG1 and KG1a) was studied. Each of the cell lines was treated for 72 hours with Compound 12 (1.0 uM) followed by plating in methylcellulose.

[11] = tested on: KG1; assay: MDS colony formation in methylcellulose, KG1; type: cell-based, human; conditions: 1.0 uM, 72 hours
Protocol: as §4

[12] = tested on: KG1a; assay: MDS colony formation in methylcellulose, KG1a; type: cell-based, human; conditions: 1.0 uM, 72 hours
Protocol: as §4

[13] = tested on: L428; assay: Hodgkin's disease colony formation in methylcellulose, L428; type: cell-based, human; conditions: HD, 1.0 uM, 72 hours
Protocol: (§5) The ability of Compound 12 to inhibit the in vitro growth of human cell lines derived from patients with non-Hodgkin's lymphoma (cell lines RL and Jeko-1) and Hodgkin's disease (cell line L428) was studied. Each of the cell lines was treated for 72 hours with Compound 12 (1.0 uM) followed by plating in methylcellulose.

[14] = tested on: RL; assay: Non-Hodgkin's lymphoma colony formation in methylcellulose, RL; type: cell-based, human; conditions: NHL, 1.0 uM, 72 hours
Protocol: as §5

[15] = tested on: Jeko-1; assay: Non-Hodgkin's lymphoma colony formation in methylcellulose, Jeko-1; type: cell-based, human; conditions: NHL, 1.0 uM, 72 hours
Protocol: as §5

[16] = tested on: Gli-reponsive luciferase reporter in REH; assay: Gli-responsive luciferase reporter transient transfection assay, REH; type: cell-based; conditions: 1 uM, vehicle alone 6.73
Protocol: (§6) The activity of Compound 12 (1 uM) against three pre-B cell acute lymphocytic leukemia cell lines (REH, RS4-11, and Nalm-6) was studied, using a transient transfection assay in which a Gli-reponsive luciferase reporter was transiently transfected into cells. Treatment with Compound 12 repressed luciferase activity compared to a vehicle treated control (Table 4).

[17] = tested on: Gli-reponsive luciferase reporter in RS4-11; assay: Gli-responsive luciferase reporter transient transfection assay, RS4-11; type: cell-based; conditions: 1 uM, vehicle alone 12.97
Protocol: as §6

[18] = tested on: Gli-reponsive luciferase reporter in Nalm-6; assay: Gli-responsive luciferase reporter transient transfection assay, Nalm-6; type: cell-based; conditions: 1 uM, vehicle alone 8.42
Protocol: as §6

[19] = tested on: REH; assay: Pre-B cell ALL colony formation in methylcellulose, REH; type: cell-based; conditions: treated 72 hours
Protocol: (§7) The effect of Compound 12 on the growth of two of these cell lines, treated in vitro for 72 hours, was also studied. Following treatment, cells were washed and plated in methylcellulose.

[20] = tested on: RS4-11; assay: Pre-B cell ALL colony formation in methylcellulose, RS4-11; type: cell-based; conditions: treated 72 hours
Protocol: as §7

[21] = 2° plating (replating of colonies)

CC1=C2C[C@H]3[C@@H](CC[C@H]4NC(=O)CC[C@@]43C)C2CC[C@@]2(C1)O[C@@H]1C[C@H](C)CN[C@H]1[C@H]2C (some centres unmarked) [Compound 1]
pEC50 [1]: > 7.70

CC1=C2C[C@H]3[C@@H](CC[C@@H]4NC(=O)CC[C@@]43C)[C@@H]2CC[C@@]2(C1)O[C@@H]1C[C@H](C)CN[C@H]1[C@H]2C [Compound 11]
pEC50 [1]: < 7.00

CC1=C2C[C@H]3[C@@H](CC[C@@H]4CNC(=O)CC[C@@]43C)[C@@H]2CC[C@@]2(C1)O[C@@H]1C[C@H](C)CN[C@H]1[C@H]2C [Compound 12]
pEC50 [1]: 7.00 to 7.70
reduced tumor volume growth compared to the vehicle control [2]: 16%
human Gli-1 modulation (q-RT-PCR) [3]: no modulation
murine Gli-1 mRNA levels (q-RT-PCR) compared to Vehicle treated group [4]: robust down-regulation
HH pathway regulation measured by Gli-1 mRNA expression [5]: dose-dependent down-regulation
ED50 ([6]; Mus musculus, daily oral dosing, medulloblastoma allografts, read-out: approximate effective daily oral dose for 50% inhibition of tumor growth (ED50)): 3 to 7.5 mg/kg
tumor regression ([6]; daily (QD) PO administration, at higher doses): frank tumor regression seen at higher doses
inhibition of tumor growth ([6]; daily (QD) PO administration, medulloblastoma allografts): dose dependent inhibition of tumor growth
% growth of cells (untreated control 100%) [7]: less than 25%
% growth of cells (untreated control 100%) [8]: less than 25%
% growth of cells (untreated control 100%) [9]: less than 25%
% colony formation with Compound 12 (relative to vehicle control) [10]: 43.4%
% colony formation with Compound 12 (relative to vehicle control) [11]: 25.1%
% colony formation with Compound 12 (relative to vehicle control) [12]: 34.6%
% colony formation with Compound 12 (relative to vehicle control) [13]: 21.4%
% colony formation with Compound 12 (relative to vehicle control) [14]: 14.3%
% colony formation with Compound 12 (relative to vehicle control) [15]: 27.4%
Relative luc activity (+ Compound) [16]: 1.12
Relative luc activity (+ Compound) [17]: 1.31
Relative luc activity (+ Compound) [18]: 1.44
% colony formation with Compound (relative to vehicle control) - 1° plating ([19]; 1° plating): 63%
% colony formation with Compound (relative to vehicle control) - 2° plating [19, 21]: 9%
% colony formation with Compound (relative to vehicle control) - 1° plating ([20]; 1° plating): 71%
% colony formation with Compound (relative to vehicle control) - 2° plating [20, 21]: 11%

CC1=C2C[C@H]3[C@@H](CC[C@@H]4CC(=O)NCC[C@@]43C)[C@@H]2CC[C@@]2(C1)O[C@@H]1C[C@H](C)CN[C@H]1[C@H]2C [Compound 19]
pEC50 [1]: < 7.00

CC1=C2C[C@H]3[C@@H](CC[C@@H]4CN(C)C(=O)CC[C@@]43C)[C@@H]2CC[C@@]2(C1)O[C@@H]1C[C@H](C)CN[C@H]1[C@H]2C [Compound 31]
pEC50 [1]: 7.00 to 7.70

CC1=C2C[C@H]3[C@@H](CC[C@@H]4CN(C)C(=O)CC[C@@]43C)[C@@H]2CC[C@@]2(C1)O[C@@H]1C[C@H](C)CN(S(C)(=O)=O)[C@H]1[C@H]2C [Compound 35]
pEC50 [1]: < 7.00

CC1=C2C[C@H]3[C@@H](CC[C@@H]4CNC(=O)CC[C@@]43C)[C@@H]2CC[C@@]2(C1)O[C@@H]1C[C@H](C)CN(S(C)(=O)=O)[C@H]1[C@H]2C [Compound 40]
pEC50 [1]: > 7.70

CC1=C2C[C@H]3[C@@H](CCC4=CN(C)C(=O)CC[C@@]43C)[C@@H]2CC[C@@]2(C1)O[C@@H]1C[C@H](C)CN[C@H]1[C@H]2C [Compound 41]
pEC50 [1]: < 7.00

CC1=C2C[C@H]3[C@@H](CC[C@@H]4CCN(S(C)(=O)=O)CC[C@@]43C)[C@@H]2CC[C@@]2(C1)O[C@@H]1C[C@H](C)CN(S(C)(=O)=O)[C@H]1[C@H]2C [Compound 50]
pEC50 [1]: < 7.00
